The source of these data is patent publication US11919888B2, “Neprilysin inhibitors” (THERAVANCE BIOPHARMA R&D IP, LLC, priority 2012, dated 2024).

Some results are limits rather than exact numbers.

T1 sequence (P08473 52-750 limits assumed): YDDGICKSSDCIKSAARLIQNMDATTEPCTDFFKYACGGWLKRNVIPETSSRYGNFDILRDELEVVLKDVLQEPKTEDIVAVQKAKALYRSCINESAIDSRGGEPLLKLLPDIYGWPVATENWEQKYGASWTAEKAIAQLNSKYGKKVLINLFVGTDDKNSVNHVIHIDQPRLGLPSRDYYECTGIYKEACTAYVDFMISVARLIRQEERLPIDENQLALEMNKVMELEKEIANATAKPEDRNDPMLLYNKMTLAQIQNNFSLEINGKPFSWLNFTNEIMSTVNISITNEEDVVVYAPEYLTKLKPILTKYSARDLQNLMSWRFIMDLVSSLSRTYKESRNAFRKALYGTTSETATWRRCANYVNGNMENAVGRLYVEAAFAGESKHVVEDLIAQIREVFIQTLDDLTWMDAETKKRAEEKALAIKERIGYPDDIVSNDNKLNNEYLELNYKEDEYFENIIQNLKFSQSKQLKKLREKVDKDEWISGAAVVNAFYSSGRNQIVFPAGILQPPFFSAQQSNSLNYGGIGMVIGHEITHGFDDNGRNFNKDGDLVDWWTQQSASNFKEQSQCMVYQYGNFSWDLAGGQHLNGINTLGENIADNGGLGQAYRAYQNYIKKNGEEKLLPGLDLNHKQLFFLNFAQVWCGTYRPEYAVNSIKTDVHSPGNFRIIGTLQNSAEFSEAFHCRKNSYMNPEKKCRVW

This assay has as its target T1, human NEP (Homo sapiens, UniProt P08473).
T1 construct: purchased R&D Systems, Minneapolis, MN 1182-ZN
The experiment in a line: In vitro enzyme inhibition assay at human NEP (fluorogenic peptide substrate). It counts as biochemical. The conditions noted are these: recombinant human NEP; 10 μM fluorogenic substrate Mca-D-Arg-Arg-Leu-Dap-(Dnp)-OH; 37° C.; 30 minute preincubation; read-out: pKi value at human NEP (converted). As to the method: In Vitro Assays for the Quantitation of Inhibitor Potencies (IC50) at Human and Rat NEP, and Human ACE
The inhibitory activities of compounds at human and rat neprilysin (EC 3.4.24.11; NEP) and human angiotensin converting enzyme (ACE) were determined using in vitro assays as described below.
Recombinant human NEP and recombinant human ACE were obtained commercially (R&D Systems, Minneapolis, MN, catalog numbers 1182-ZN and 929-ZN, respectively). The fluorogenic peptide substrate Mca-D-Arg-Arg-Leu-Dap-(Dnp)-OH (Medeiros et al. (1997) Braz. J. Med. Biol. Res. 30:1157-62; Anaspec, San Jose, CA) and Abz-Phe-Arg-Lys(Dnp)-Pro-OH (Araujo et al. (2000) Biochemistry 39:8519-8525; Bachem, Torrance, CA) were used in the NEP and ACE assays respectively.
The assays were performed in 384-well white opaque plates at 37° C. using the fluorogenic peptide substrates at a concentration of 10 μM in Assay Buffer (NEP: 50 mM HEPES, pH 7.5, 100 mM NaCl, 0.01% polyethylene glycol sorbitan monolaurate (Tween-20), 10 μM ZnSO4; ACE: 50 mM HEPES, pH 7.5, 100 mM NaCl, 0.01% Tween-20, 1 μM ZnSO4).
Test compounds were assayed over the range of concentrations from 10 μM to 20 pM. Test compounds were added to the enzymes and incubated for 30 minute at 37° C. prior to initiating the reaction by the addition of substrate. Reactions were terminated after 20 minutes of incubation at 37° C. by the addition of glacial acetic acid to a final concentration of 3.6% (v/v).
Plates were read on a fluorometer with excitation and emission wavelengths set to 320 nm and 405 nm, respectively. Inhibition constants were obtained by nonlinear regression of the data using the equation (GraphPad Software, Inc., San Diego, CA): ν=ν0/[1+(I/K′)] where ν is the reaction rate, ν0 is the uninhibited reaction rate, I is the inhibitor concentration and K′ is the apparent inhibition constant.
On to `C[C@@](CO)(C[C@@H](Cc1ccc(-c2ccccc2)cc1)NC(=O)c1cnn[nH]1)C(=O)O` [(2S,4R)-5-biphenyl-4-yl-2-hydroxymethyl-2-methyl-4-[(3H-[1,2,3]triazole-4-carbonyl)amino]-pentanoic acid, reference compound], for which the Ki was at most 1 nM.

Turning to `CC(=O)OC[C@](C)(C[C@@H](Cc1ccc(-c2ccccc2)cc1)NC(=O)c1cnn[nH]1)C(=O)O` [Example 1D, (2S,4R)-2-Acetoxymethyl-5-biphenyl-4-yl-2-methyl-4-[(3H-[1,2,3]triazole-4-carbonyl)amino]pentanoic Acid], the Ki was at most 1 nM.

Regarding `CC(C)C(=O)OC[C@](C)(C[C@@H](Cc1ccc(-c2ccccc2)cc1)NC(=O)c1cnn[nH]1)C(=O)O` [Example 1E, (2S,4R)-5-Biphenyl-4-yl-2-isobutyryloxymethyl-2-methyl-4-[(3H-[1,2,3]triazole-4-carbonyl)amino]pentanoic Acid], the Ki is at most 1 nM.

On to `CC(C)CC(=O)OC[C@](C)(C[C@@H](Cc1ccc(-c2ccccc2)cc1)NC(=O)c1cnn[nH]1)C(=O)O` [Example 1F, (2S,4R)-5-Biphenyl-4-yl-2-methyl-2-(3-methylbutyryloxymethyl)-4-[(3H-[1,2,3]triazole-4-carbonyl)amino]pentanoic Acid], for which the Ki was at most 1 nM.

For the compound `CCOC[C@](C)(C[C@@H](Cc1ccc(-c2ccccc2)cc1)NC(=O)c1c[nH]nn1)C(=O)O` [Example 1I, (2S,4R)-5-Biphenyl-4-yl-2-ethoxymethyl-2-methyl-4-[(1H-[1,2,3]triazole-4-carbonyl)amino]pentanoic Acid], the Ki was 1 to 3.16 nM.

Consider `COC[C@](C)(C[C@@H](Cc1ccc(-c2ccccc2)cc1)NC(=O)c1c[nH]nn1)C(=O)O` [Example 1J, (2S,4R)-5-Biphenyl-4-yl-2-methoxymethyl-2-methyl-4-[(1H-[1,2,3]triazole-4-carbonyl)amino]pentanoic Acid], for which the Ki is 1 to 3.16 nM.

On to `COc1ccccc1-c1ccc(C[C@H](C[C@@](C)(CO)C(=O)O)NC(=O)c2c[nH]nn2)cc1` [Example 2A, (2S,4R)-2-Hydroxymethyl-5-(2′-methoxybiphenyl-4-yl)-2-methyl-4-[(1H-[1,2,3]triazole-4-carbonyl)amino]pentanoic Acid], for which the Ki was 1 to 3.16 nM.

As to `C[C@@](CO)(C[C@@H](Cc1ccc(-c2ccccc2Cl)cc1)NC(=O)c1c[nH]nn1)C(=O)O` [Example 2B, (2S,4R)-5-(2′-Chlorobiphenyl-4-yl)-2-hydroxymethyl-2-methyl-4-[(1H-[1,2,3]triazole-4-carbonyl)amino]pentanoic Acid], the Ki is at most 1 nM.

As for `Cc1ccccc1-c1ccc(C[C@H](C[C@@](C)(CO)C(=O)O)NC(=O)c2c[nH]nn2)cc1` [Example 2C, (2S,4R)-2-Hydroxymethyl-2-methyl-5-(2′-methylbiphenyl-4-yl)-4-[(1H-[1,2,3]triazole-4-carbonyl)amino]pentanoic Acid], the Ki was at most 1 nM.

With `C[C@@](CO)(C[C@@H](Cc1ccc(-c2cccc(Cl)c2)cc1)NC(=O)c1c[nH]nn1)C(=O)O` [Example 2D, (2S,4R)-5-(3′-Chlorobiphenyl-4-yl)-2-hydroxymethyl-2-methyl-4-[(1H-[1,2,3]triazole-4-carbonyl)amino]pentanoic Acid], the Ki is at most 1 nM.

`C[C@@](CO)(C[C@@H](Cc1ccc(-c2cc(Cl)ccc2F)cc1)NC(=O)c1c[nH]nn1)C(=O)O` [Example 2E, (2S,4R)-5-(5′-Chloro-2′-fluorobiphenyl-4-yl)-2-hydroxymethyl-2-methyl-4-[(1H-[1,2,3]triazole-4-carbonyl)amino]pentanoic Acid]: the Ki was 1 to 3.16 nM.

As for `C[C@@](CO)(C[C@@H](Cc1ccc(-c2cc(Cl)ccc2Cl)cc1)NC(=O)c1c[nH]nn1)C(=O)O` [Example 2F, (2S,4R)-5-(2′,5′-Dichlorobiphenyl-4-yl)-2-hydroxymethyl-2-methyl-4-[(1H-[1,2,3]triazole-4-carbonyl)amino]pentanoic Acid], the Ki was at most 1 nM.

As to `Cc1ccc(Cl)cc1-c1ccc(C[C@H](C[C@@](C)(CO)C(=O)O)NC(=O)c2c[nH]nn2)cc1` [Example 2G, (2S,4R)-5-(5′-Chloro-2′-methylbiphenyl-4-yl)-2-hydroxymethyl-2-methyl-4-[(1H-[1,2,3]triazole-4-carbonyl)amino]pentanoic Acid], the Ki was at most 1 nM.

`C[C@@](CO)(C[C@@H](Cc1ccc(-c2cccc(C#N)c2)cc1)NC(=O)c1c[nH]nn1)C(=O)O` [Example 2H, (2S,4R)-5-(3′-Cyanobiphenyl-4-yl)-2-hydroxymethyl-2-methyl-4-[(1H-[1,2,3]triazole-4-carbonyl)amino]pentanoic Acid]: the Ki was 3.16 to 10 nM.

On to `COC[C@](C)(C[C@@H](Cc1ccc(-c2cccc(Cl)c2)cc1)NC(=O)c1c[nH]nn1)C(=O)O` [Example 2J, (2S,4R)-5-(3′-Chlorobiphenyl-4-yl)-2-methoxymethyl-2-methyl-4-[(1H-[1,2,3]triazole-4-carbonyl)amino]pentanoic Acid], for which the Ki was 1 to 3.16 nM.

With `CCOC[C@](C)(C[C@@H](Cc1ccc(-c2cccc(Cl)c2)cc1)NC(=O)c1cnn[nH]1)C(=O)O` [Example 2K, (2S,4R)-5-(3′-Chlorobiphenyl-4-yl)-2-ethoxymethyl-2-methyl-4-[(3H-[1,2,3]triazole-4-carbonyl)amino]pentanoic Acid], the Ki was at most 1 nM.

Consider `C[C@@](COCCO)(C[C@@H](Cc1ccc(-c2cccc(Cl)c2)cc1)NC(=O)c1c[nH]nn1)C(=O)O` [Example 2L, (2S,4R)-5-(3′-Chlorobiphenyl-4-yl)-2-(2-hydroxyethoxymethyl)-2-methyl-4-[(1H-[1,2,3]triazole-4-carbonyl)amino]pentanoic Acid], for which the Ki is at most 1 nM.

With `C[C@@](COCCCO)(C[C@@H](Cc1ccc(-c2cccc(Cl)c2)cc1)NC(=O)c1c[nH]nn1)C(=O)O` [Example 2M, (2S,4R)-5-(3′-Chlorobiphenyl-4-yl)-2-(3-hydroxypropoxymethyl)-2-methyl-4-[(1H-[1,2,3]triazole-4-carbonyl)amino]pentanoic Acid], the Ki was at most 1 nM.

Consider `COC[C@](C)(C[C@@H](Cc1ccc(-c2cc(Cl)ccc2F)cc1)NC(=O)c1c[nH]nn1)C(=O)O` [Example 2N, (2S,4R)-5-(5′-Chloro-2′-fluorobiphenyl-4-yl)-2-methoxymethyl-2-methyl-4-[(1H-[1,2,3]triazole-4-carbonyl)amino]pentanoic Acid], for which the Ki is at most 1 nM.

As for `CCOC[C@](C)(C[C@@H](Cc1ccc(-c2cc(Cl)ccc2F)cc1)NC(=O)c1c[nH]nn1)C(=O)O` [Example 2O, (2S,4R)-5-(5′-Chloro-2′-fluoro-biphenyl-4-yl)-2-ethoxymethyl-2-methyl-4-[(1H-[1,2,3]triazole-4-carbonyl)amino]pentanoic Acid], the Ki is at most 1 nM.

In the case of `C[C@@](COCCCO)(C[C@@H](Cc1ccc(-c2cc(Cl)ccc2F)cc1)NC(=O)c1cnn[nH]1)C(=O)O` [Example 2P, (2S,4R)-5-(5′-Chloro-2′-fluorobiphenyl-4-yl)-2-(3-hydroxypropoxymethyl)-2-methyl-4-[(3H-[1,2,3]triazole-4-carbonyl)amino]pentanoic Acid], the Ki is at most 1 nM.

Consider `CCCCCOC[C@](C)(C[C@@H](Cc1ccc(-c2cc(Cl)ccc2F)cc1)NC(=O)c1cnn[nH]1)C(=O)O` [Example 2Q, (2S,4R)-5-(5′-Chloro-2′-fluorobiphenyl-4-yl)-2-methyl-2-pentyloxymethyl-4-[(3H-[1,2,3]triazole-4-carbonyl)amino]pentanoic Acid], for which the Ki was 1 to 3.16 nM.

For `CC(C)OC[C@](C)(C[C@@H](Cc1ccc(-c2cc(Cl)ccc2F)cc1)NC(=O)c1cnn[nH]1)C(=O)O` [Example 2R, (2S,4R)-5-(5′-Chloro-2′-fluorobiphenyl-4-yl)-2-isopropoxymethyl-2-methvl-4-[(3H-[1,2,3]triazole-4-carbonyl)amino]pentanoic Acid], the Ki is at most 1 nM.

With `C[C@@](COCCO)(C[C@@H](Cc1ccc(-c2cc(Cl)ccc2F)cc1)NC(=O)c1cnn[nH]1)C(=O)O` [Example 2S, (2S,4R)-5-(5′-Chloro-2′-fluorobiphenyl-4-yl)-2-(2-hydroxyethoxymethyl)-2-methyl-4-[(3H-[1,2,3]triazole-4-carbonyl)amino]pentanoic Acid], the Ki was 3.16 to 10 nM.

Consider `COn1cc(C(=O)N[C@H](Cc2ccc(-c3cc(Cl)ccc3F)cc2)C[C@@](C)(CO)C(=O)O)nn1` [Example 4B, (2S,4R)-5-(5′-Chloro-2′-fluorobiphenyl-4-yl)-2-hydroxymethyl-4-[(1-methoxy-1H-[1.2.3]triazole-4-carbonyl)amino]-2-methylpentanoic Acid], for which the Ki was at most 1 nM.
